Assay results published in US9708314B2, “Heterocyclic amide compound” (NISSAN CHEMICAL INDUSTRIES, LTD., priority 2013, dated 2017).

Assays:
Format in all cases: in vivo
[1] = tested on: Echinochloa oryzacola Vasing.; test: Test Example 2: herbicidal activity, application during weed generation in submerged conditions; conditions: Eighteenth Table; application herbicide amount 320 g/ha
Procedure, shortened: (§1)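 Scored three weeks post-application on a 0–5 scale (5: ≥90% herbicidal ratio, almost withered; 0: ≤5%). Plants raised from mixed-sown seed in submerged alluvial soil (4 cm water), 25–30 °C greenhouse; water-diluted emulsion applied onto water surface at one- to two-leaf stage, dose in g/ha.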

Scirpus juncoides = test: as above; conditions: Eighteenth Table; application herbicide amount 320 g/ha
Procedure, shortened: as §1

Monochoria vaginalis = test: as above; conditions: Eighteenth Table; application herbicide amount 320 g/ha
Procedure, shortened: as §1

Brassica campestris L. = test: Test Example 4: effect on crop by application to foliage (diluvial soil, plastic box); conditions: 320 g/ha; for effect on crop, g (Brassica campestris L.): application to foliage
Procedure, shortened: (§2)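 Seeds sown in sterilized diluvial soil, covered ~1.5 cm, grown 14 days in greenhouse at 25° C. to 30° C. Emulsion formulation diluted in water to set rate (g/ha) and sprayed onto stems and leaves. Effect scored visually 3 weeks later on 0–5 scale (5 = ≥90% herbicidal ratio, 0 = ≤5%).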

[2] = tested on: Beta vulgaris ssp. vulgaris; test: as above; conditions: 320 g/ha; for effect on crop, f (Beta vulgaris ssp. vulgaris): application to foliage
Procedure, shortened: as §2

[3] = tested on: directly sowed Oryza sativa; test: as above; conditions: 320 g/ha; for effect on crop, d (directly sowed Oryza sativa): application to foliage
Procedure, shortened: as §2

Zea mays = test: as above; conditions: foliage application, 320 g/ha
Procedure, shortened: as §2

Glycine max = test: as above; conditions: 320 g/ha; for effect on crop, c (Glycine max): application to foliage
Procedure, shortened: as §2

Triticum aestivum = test: as above; conditions: 320 g/ha; for effect on crop, e (Triticum aestivum): application to foliage
Procedure, shortened: as §2

[4] = tested on: Echinochloa crus-galli var. crus-galli; test: Test Example 4: herbicidal effect by application to foliage (diluvial soil, plastic box); conditions: 320 g/ha; for herbicidal effect, H (Echinochloa crus-galli var. crus-galli): application to foliage
Procedure, shortened: as §2

Apera spica-venti. = test: as above; conditions: 320 g/ha; for herbicidal effect, L (Apera spica-venti.): application to foliage
Procedure, shortened: as §2

Stellaria media = test: as above; conditions: 320 g/ha; for herbicidal effect, P (Stellaria media): application to foliage
Procedure, shortened: as §2

Setaria viridis = test: as above; conditions: 320 g/ha; for herbicidal effect, G (Setaria viridis): application to foliage
Procedure, shortened: as §2

Amaranthus retroflexus = test: as above; conditions: 320 g/ha; for herbicidal effect, N (Amaranthus retroflexus): application to foliage
Procedure, shortened: as §2

Avena fatua = test: as above; conditions: 320 g/ha; for herbicidal effect, I (Avena fatua): application to foliage
Procedure, shortened: as §2

Lolium multiflorum Lam. = test: as above; conditions: 320 g/ha; for herbicidal effect, K (Lolium multiflorum Lam.): application to foliage
Procedure, shortened: as §2

Alopecurus myosuroides = test: as above; conditions: 320 g/ha; for herbicidal effect, J (Alopecurus myosuroides): application to foliage
Procedure, shortened: as §2

Abutilon theophrasti = test: as above; conditions: 320 g/ha; for herbicidal effect, M (Abutilon theophrasti): application to foliage
Procedure, shortened: as §2

Galium spurium = test: as above; conditions: 320 g/ha; for herbicidal effect, Q (Galium spurium): application to foliage
Procedure, shortened: as §2

Chenopodium album = test: as above; conditions: 320 g/ha; for herbicidal effect, O (Chenopodium album): application to foliage
Procedure, shortened: as §2

Digitaria ciliaris = test: as above; conditions: 320 g/ha; for herbicidal effect, F (Digitaria ciliaris): application to foliage
Procedure, shortened: as §2

Veronica persica = test: as above; conditions: application to foliage, 320 g/ha
Procedure, shortened: as §2

Cn1nnnc1NC(=O)c1ccc(C(F)(F)F)n2c(Nc3ccccc3)nnc12 [2-056]
A (Echinochloa oryzicola Vasing.) herbicidal ratio grade [1]: 3 (Herbicidal ratio of 40% or more and less than 70%) | B (Scirpus juncoides) herbicidal ratio grade (Scirpus juncoides): 3 (Herbicidal ratio of 40% or more and less than 70%) | C (Monochoria vaginalis) herbicidal ratio grade (Monochoria vaginalis): 3 (Herbicidal ratio of 40% or more and less than 70%) | g (Brassica campestris L.) effect on crop grade (Brassica campestris L.; foliage application): 3 (Herbicidal ratio of 40% or more and less than 70%) | f (Beta vulgaris ssp. vulgaris) effect on crop grade ([2]; foliage application): 5 (Herbicidal ratio of 90% or more (almost completely withered)) | d (directly sowed Oryza sativa) effect on crop grade ([3]; foliage application): 3 (Herbicidal ratio of 40% or more and less than 70%) | b (Zea mays) effect on crop grade (Zea mays): 0 (Herbicidal ratio of 5% or less (almost no effect)) | c (Glycine max) effect on crop grade (Glycine max; foliage application): 1 (Herbicidal ratio of 5% or more and less than 20%) | e (Triticum aestivum) effect on crop grade (Triticum aestivum; foliage application): 1 (Herbicidal ratio of 5% or more and less than 20%) | H (Echinochloa crus-galli var. crus-galli) herbicidal effect grade ([4]; foliage application): 4 (Herbicidal ratio of 70% or more and less than 90%) | L (Apera spica-venti.) herbicidal effect grade (Apera spica-venti.; foliage application): 1 (Herbicidal ratio of 5% or more and less than 20%) | P (Stellaria media) herbicidal effect grade (Stellaria media; foliage application): 5 (Herbicidal ratio of 90% or more (almost completely withered)) | G (Setaria viridis) herbicidal effect grade (Setaria viridis; foliage application): 3 (Herbicidal ratio of 40% or more and less than 70%) | N (Amaranthus retroflexus) herbicidal effect grade (Amaranthus retroflexus; foliage application): 4 (Herbicidal ratio of 70% or more and less than 90%) | I (Avena fatua) herbicidal effect grade (Avena fatua; foliage application): 1 (Herbicidal ratio of 5% or more and less than 20%) | K (Lolium multiflorum Lam.) herbicidal effect grade (Lolium multiflorum Lam.; foliage application): 1 (Herbicidal ratio of 5% or more and less than 20%) | J (Alopecurus myosuroides) herbicidal effect grade (Alopecurus myosuroides; foliage application): 1 (Herbicidal ratio of 5% or more and less than 20%) | M (Abutilon theophrasti) herbicidal effect grade (Abutilon theophrasti; foliage application): 4 (Herbicidal ratio of 70% or more and less than 90%) | Q (Galium spurium) herbicidal effect grade (Galium spurium; foliage application): 4 (Herbicidal ratio of 70% or more and less than 90%) | O (Chenopodium album) herbicidal effect grade (Chenopodium album; foliage application): 5 (Herbicidal ratio of 90% or more (almost completely withered)) | F (Digitaria ciliaris) herbicidal effect grade (Digitaria ciliaris; foliage application): 5 (Herbicidal ratio of 90% or more (almost completely withered))

Cn1nnnc1NC(=O)c1ccc(C(F)(F)F)n2c(NCC(F)(F)F)nnc12 [2-081]
A (Echinochloa oryzicola Vasing.) herbicidal ratio grade [1]: 2 (Herbicidal ratio of 20% or more and less than 40%) | B (Scirpus juncoides) herbicidal ratio grade (Scirpus juncoides): 2 (Herbicidal ratio of 20% or more and less than 40%) | C (Monochoria vaginalis) herbicidal ratio grade (Monochoria vaginalis): 2 (Herbicidal ratio of 20% or more and less than 40%) | effect on crop, g (Brassica campestris L.) (Brassica campestris L.): 4 (Herbicidal ratio of 70% or more and less than 90%) | effect on crop, f (Beta vulgaris ssp. vulgaris) [2]: 5 (Herbicidal ratio of 90% or more (almost completely withered)) | effect on crop, d (directly sowed Oryza sativa) [3]: 3 (Herbicidal ratio of 40% or more and less than 70%) | effect on crop, c (Glycine max) (Glycine max): 0 (Herbicidal ratio of 5% or less (almost no effect)) | effect on crop, e (Triticum aestivum) (Triticum aestivum): 2 (Herbicidal ratio of 20% or more and less than 40%) | herbicidal effect, H (Echinochloa crus-galli var. crus-galli) [4]: 5 (Herbicidal ratio of 90% or more (almost completely withered)) | herbicidal effect, L (Apera spica-venti.) (Apera spica-venti.): 1 (Herbicidal ratio of 5% or more and less than 20%) | herbicidal effect, P (Stellaria media) (Stellaria media): 5 (Herbicidal ratio of 90% or more (almost completely withered)) | herbicidal effect, G (Setaria viridis) (Setaria viridis): 3 (Herbicidal ratio of 40% or more and less than 70%) | herbicidal effect, N (Amaranthus retroflexus) (Amaranthus retroflexus): 5 (Herbicidal ratio of 90% or more (almost completely withered)) | herbicidal effect, I (Avena fatua) (Avena fatua): 3 (Herbicidal ratio of 40% or more and less than 70%) | herbicidal effect, K (Lolium multiflorum Lam.) (Lolium multiflorum Lam.): 1 (Herbicidal ratio of 5% or more and less than 20%) | herbicidal effect, J (Alopecurus myosuroides) (Alopecurus myosuroides): 1 (Herbicidal ratio of 5% or more and less than 20%) | herbicidal effect, R (Veronica persica) (Veronica persica): 4 (Herbicidal ratio of 70% or more and less than 90%) | herbicidal effect, M (Abutilon theophrasti) (Abutilon theophrasti): 4 (Herbicidal ratio of 70% or more and less than 90%) | herbicidal effect, Q (Galium spurium) (Galium spurium): 3 (Herbicidal ratio of 40% or more and less than 70%) | herbicidal effect, O (Chenopodium album) (Chenopodium album): 5 (Herbicidal ratio of 90% or more (almost completely withered)) | herbicidal effect, F (Digitaria ciliaris) (Digitaria ciliaris): 4 (Herbicidal ratio of 70% or more and less than 90%)

CC(C)N(C)c1nnc2c(C(=O)Nc3nnnn3C)ccc(C(F)(F)F)n12 [2-082]
A (Echinochloa oryzicola Vasing.) herbicidal ratio grade [1]: 5 (Herbicidal ratio of 90% or more (almost completely withered)) | B (Scirpus juncoides) herbicidal ratio grade (Scirpus juncoides): 4 (Herbicidal ratio of 70% or more and less than 90%) | C (Monochoria vaginalis) herbicidal ratio grade (Monochoria vaginalis): 3 (Herbicidal ratio of 40% or more and less than 70%) | effect on crop, g (Brassica campestris L.) (Brassica campestris L.): 5 (Herbicidal ratio of 90% or more (almost completely withered)) | effect on crop, f (Beta vulgaris ssp. vulgaris) [2]: 5 (Herbicidal ratio of 90% or more (almost completely withered)) | effect on crop, d (directly sowed Oryza sativa) [3]: 5 (Herbicidal ratio of 90% or more (almost completely withered)) | effect on crop, c (Glycine max) (Glycine max): 1 (Herbicidal ratio of 5% or more and less than 20%) | effect on crop, e (Triticum aestivum) (Triticum aestivum): 4 (Herbicidal ratio of 70% or more and less than 90%) | herbicidal effect, H (Echinochloa crus-galli var. crus-galli) [4]: 5 (Herbicidal ratio of 90% or more (almost completely withered)) | herbicidal effect, L (Apera spica-venti.) (Apera spica-venti.): 4 (Herbicidal ratio of 70% or more and less than 90%) | herbicidal effect, P (Stellaria media) (Stellaria media): 5 (Herbicidal ratio of 90% or more (almost completely withered)) | herbicidal effect, G (Setaria viridis) (Setaria viridis): 5 (Herbicidal ratio of 90% or more (almost completely withered)) | herbicidal effect, N (Amaranthus retroflexus) (Amaranthus retroflexus): 5 (Herbicidal ratio of 90% or more (almost completely withered)) | herbicidal effect, I (Avena fatua) (Avena fatua): 2 (Herbicidal ratio of 20% or more and less than 40%) | herbicidal effect, K (Lolium multiflorum Lam.) (Lolium multiflorum Lam.): 4 (Herbicidal ratio of 70% or more and less than 90%) | herbicidal effect, J (Alopecurus myosuroides) (Alopecurus myosuroides): 4 (Herbicidal ratio of 70% or more and less than 90%) | herbicidal effect, R (Veronica persica) (Veronica persica): 4 (Herbicidal ratio of 70% or more and less than 90%) | herbicidal effect, M (Abutilon theophrasti) (Abutilon theophrasti): 5 (Herbicidal ratio of 90% or more (almost completely withered)) | herbicidal effect, Q (Galium spurium) (Galium spurium): 4 (Herbicidal ratio of 70% or more and less than 90%) | herbicidal effect, O (Chenopodium album) (Chenopodium album): 5 (Herbicidal ratio of 90% or more (almost completely withered)) | herbicidal effect, F (Digitaria ciliaris) (Digitaria ciliaris): 5 (Herbicidal ratio of 90% or more (almost completely withered))

CN(c1nnc2c(C(=O)Nc3nnnn3C)ccc(C(F)(F)F)n12)C1CCCCC1 [2-083]
A (Echinochloa oryzicola Vasing.) herbicidal ratio grade [1]: 3 (Herbicidal ratio of 40% or more and less than 70%) | B (Scirpus juncoides) herbicidal ratio grade (Scirpus juncoides): 3 (Herbicidal ratio of 40% or more and less than 70%) | C (Monochoria vaginalis) herbicidal ratio grade (Monochoria vaginalis): 3 (Herbicidal ratio of 40% or more and less than 70%) | effect on crop, g (Brassica campestris L.) (Brassica campestris L.): 1 (Herbicidal ratio of 5% or more and less than 20%) | effect on crop, f (Beta vulgaris ssp. vulgaris) [2]: 5 (Herbicidal ratio of 90% or more (almost completely withered)) | effect on crop, d (directly sowed Oryza sativa) [3]: 4 (Herbicidal ratio of 70% or more and less than 90%) | effect on crop, c (Glycine max) (Glycine max): 0 (Herbicidal ratio of 5% or less (almost no effect)) | effect on crop, e (Triticum aestivum) (Triticum aestivum): 0 (Herbicidal ratio of 5% or less (almost no effect)) | herbicidal effect, H (Echinochloa crus-galli var. crus-galli) [4]: 5 (Herbicidal ratio of 90% or more (almost completely withered)) | herbicidal effect, L (Apera spica-venti.) (Apera spica-venti.): 1 (Herbicidal ratio of 5% or more and less than 20%) | herbicidal effect, P (Stellaria media) (Stellaria media): 4 (Herbicidal ratio of 70% or more and less than 90%) | herbicidal effect, G (Setaria viridis) (Setaria viridis): 4 (Herbicidal ratio of 70% or more and less than 90%) | herbicidal effect, N (Amaranthus retroflexus) (Amaranthus retroflexus): 5 (Herbicidal ratio of 90% or more (almost completely withered)) | herbicidal effect, I (Avena fatua) (Avena fatua): 2 (Herbicidal ratio of 20% or more and less than 40%) | herbicidal effect, K (Lolium multiflorum Lam.) (Lolium multiflorum Lam.): 1 (Herbicidal ratio of 5% or more and less than 20%) | herbicidal effect, J (Alopecurus myosuroides) (Alopecurus myosuroides): 1 (Herbicidal ratio of 5% or more and less than 20%) | herbicidal effect, R (Veronica persica) (Veronica persica): 4 (Herbicidal ratio of 70% or more and less than 90%) | herbicidal effect, M (Abutilon theophrasti) (Abutilon theophrasti): 5 (Herbicidal ratio of 90% or more (almost completely withered)) | herbicidal effect, Q (Galium spurium) (Galium spurium): 3 (Herbicidal ratio of 40% or more and less than 70%) | herbicidal effect, O (Chenopodium album) (Chenopodium album): 5 (Herbicidal ratio of 90% or more (almost completely withered)) | herbicidal effect, F (Digitaria ciliaris) (Digitaria ciliaris): 5 (Herbicidal ratio of 90% or more (almost completely withered))
